Laboratory results: ChEMBL document CHEMBL5291721, “A preclinical secondary pharmacology resource illuminates target-adverse drug reaction associations of marketed drugs” (Nat Commun, 2023)

Tests used:
[1] = molecular target: T1, 5-hydroxytryptamine receptor 2C (Homo sapiens, UniProt P28335)
T1 sequence (P28335 whole entry): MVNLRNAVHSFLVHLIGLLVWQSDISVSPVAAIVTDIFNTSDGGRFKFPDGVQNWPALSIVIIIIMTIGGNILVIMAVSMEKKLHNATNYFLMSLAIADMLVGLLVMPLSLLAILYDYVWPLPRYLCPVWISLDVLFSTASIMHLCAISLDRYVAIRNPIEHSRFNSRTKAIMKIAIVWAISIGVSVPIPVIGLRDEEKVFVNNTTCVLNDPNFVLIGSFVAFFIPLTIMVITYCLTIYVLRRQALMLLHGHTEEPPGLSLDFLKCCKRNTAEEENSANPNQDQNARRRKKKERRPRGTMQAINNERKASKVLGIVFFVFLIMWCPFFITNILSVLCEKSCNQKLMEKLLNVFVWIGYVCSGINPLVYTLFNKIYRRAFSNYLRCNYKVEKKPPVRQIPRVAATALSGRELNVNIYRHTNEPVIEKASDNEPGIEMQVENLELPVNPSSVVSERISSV

[2] = molecular target: Delta-type opioid receptor (Homo sapiens, UniProt P41143)
[3] = molecular target: T2, Amine oxidase [flavin-containing] A (Homo sapiens, UniProt P21397); format: functional
T2 sequence (P21397 whole entry): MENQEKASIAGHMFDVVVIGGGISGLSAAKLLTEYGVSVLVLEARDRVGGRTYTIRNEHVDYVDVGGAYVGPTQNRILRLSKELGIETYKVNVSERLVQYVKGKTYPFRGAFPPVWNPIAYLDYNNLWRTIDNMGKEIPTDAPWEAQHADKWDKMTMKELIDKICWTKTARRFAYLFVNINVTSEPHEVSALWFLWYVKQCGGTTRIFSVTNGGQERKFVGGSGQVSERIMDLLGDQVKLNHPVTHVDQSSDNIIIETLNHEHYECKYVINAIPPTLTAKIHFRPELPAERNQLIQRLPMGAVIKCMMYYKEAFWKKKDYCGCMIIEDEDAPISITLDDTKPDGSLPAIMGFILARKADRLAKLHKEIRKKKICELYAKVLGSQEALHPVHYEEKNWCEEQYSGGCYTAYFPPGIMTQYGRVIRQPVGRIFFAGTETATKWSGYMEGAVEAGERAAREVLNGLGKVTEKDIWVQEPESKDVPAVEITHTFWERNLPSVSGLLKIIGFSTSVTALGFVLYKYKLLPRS

[4] = molecular target: cGMP-inhibited 3',5'-cyclic phosphodiesterase 3A (Homo sapiens, UniProt Q14432); format: functional
[5] = molecular target: T3, Muscarinic acetylcholine receptor M1 (Homo sapiens, UniProt P11229); format: functional
T3 sequence (P11229 whole entry): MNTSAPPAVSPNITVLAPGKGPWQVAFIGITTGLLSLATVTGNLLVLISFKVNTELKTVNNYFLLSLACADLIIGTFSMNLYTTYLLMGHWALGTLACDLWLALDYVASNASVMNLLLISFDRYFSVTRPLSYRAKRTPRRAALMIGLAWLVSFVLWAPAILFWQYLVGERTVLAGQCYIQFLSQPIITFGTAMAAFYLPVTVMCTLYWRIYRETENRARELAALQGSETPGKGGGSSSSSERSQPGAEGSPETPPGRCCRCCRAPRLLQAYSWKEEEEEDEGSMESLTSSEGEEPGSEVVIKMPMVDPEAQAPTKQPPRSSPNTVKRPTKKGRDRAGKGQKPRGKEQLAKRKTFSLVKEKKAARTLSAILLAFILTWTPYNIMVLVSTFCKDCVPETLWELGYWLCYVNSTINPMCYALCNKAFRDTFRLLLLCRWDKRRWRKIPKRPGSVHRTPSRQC

[6] = molecular target: T4, Muscarinic acetylcholine receptor M2 (Homo sapiens, UniProt P08172); format: functional, cell-based
T4 sequence (P08172 whole entry): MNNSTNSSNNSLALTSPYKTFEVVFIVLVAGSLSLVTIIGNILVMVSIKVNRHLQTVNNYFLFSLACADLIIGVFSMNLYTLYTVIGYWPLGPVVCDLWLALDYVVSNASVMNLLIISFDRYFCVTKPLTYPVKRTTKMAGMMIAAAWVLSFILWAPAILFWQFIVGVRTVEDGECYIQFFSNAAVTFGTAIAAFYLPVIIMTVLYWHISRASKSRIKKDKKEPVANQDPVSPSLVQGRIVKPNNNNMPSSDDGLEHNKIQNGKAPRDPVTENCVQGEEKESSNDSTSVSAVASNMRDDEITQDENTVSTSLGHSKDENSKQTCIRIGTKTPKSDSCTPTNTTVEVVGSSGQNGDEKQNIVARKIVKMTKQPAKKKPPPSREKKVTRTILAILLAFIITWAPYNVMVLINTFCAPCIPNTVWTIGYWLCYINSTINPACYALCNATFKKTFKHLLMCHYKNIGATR

D(1A) dopamine receptor = D(1A) dopamine receptor (Homo sapiens, UniProt P21728); format: functional, cell-based
[7] = molecular target: Voltage-gated inwardly rectifying potassium channel KCNH2 (Homo sapiens, UniProt Q12809); format: functional; settings: read-out: AC50
[8] = molecular target: T5, Prostaglandin G/H synthase 1 (Rattus norvegicus, UniProt Q63921); format: functional
T5 sequence (Q63921 whole entry): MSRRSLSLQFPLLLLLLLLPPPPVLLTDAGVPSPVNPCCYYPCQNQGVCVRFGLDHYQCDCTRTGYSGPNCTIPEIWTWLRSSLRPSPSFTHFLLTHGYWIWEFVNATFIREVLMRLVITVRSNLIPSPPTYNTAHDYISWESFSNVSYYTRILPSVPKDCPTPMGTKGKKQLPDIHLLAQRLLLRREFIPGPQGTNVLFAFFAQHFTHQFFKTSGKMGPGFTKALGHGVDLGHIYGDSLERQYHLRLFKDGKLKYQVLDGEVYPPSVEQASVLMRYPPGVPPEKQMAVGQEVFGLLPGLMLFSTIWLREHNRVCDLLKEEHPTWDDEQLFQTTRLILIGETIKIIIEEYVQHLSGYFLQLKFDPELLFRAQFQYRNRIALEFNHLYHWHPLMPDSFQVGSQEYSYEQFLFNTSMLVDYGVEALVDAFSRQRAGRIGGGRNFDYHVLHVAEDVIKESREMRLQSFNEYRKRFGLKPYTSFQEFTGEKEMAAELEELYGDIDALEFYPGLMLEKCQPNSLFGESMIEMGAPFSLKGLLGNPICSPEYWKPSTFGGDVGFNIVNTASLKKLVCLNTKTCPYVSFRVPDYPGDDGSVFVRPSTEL
Further: assay procedure not described here.

Chain of cGMP-inhibited 3',5'-cyclic phosphodiesterase 3A (Q14432 whole entry): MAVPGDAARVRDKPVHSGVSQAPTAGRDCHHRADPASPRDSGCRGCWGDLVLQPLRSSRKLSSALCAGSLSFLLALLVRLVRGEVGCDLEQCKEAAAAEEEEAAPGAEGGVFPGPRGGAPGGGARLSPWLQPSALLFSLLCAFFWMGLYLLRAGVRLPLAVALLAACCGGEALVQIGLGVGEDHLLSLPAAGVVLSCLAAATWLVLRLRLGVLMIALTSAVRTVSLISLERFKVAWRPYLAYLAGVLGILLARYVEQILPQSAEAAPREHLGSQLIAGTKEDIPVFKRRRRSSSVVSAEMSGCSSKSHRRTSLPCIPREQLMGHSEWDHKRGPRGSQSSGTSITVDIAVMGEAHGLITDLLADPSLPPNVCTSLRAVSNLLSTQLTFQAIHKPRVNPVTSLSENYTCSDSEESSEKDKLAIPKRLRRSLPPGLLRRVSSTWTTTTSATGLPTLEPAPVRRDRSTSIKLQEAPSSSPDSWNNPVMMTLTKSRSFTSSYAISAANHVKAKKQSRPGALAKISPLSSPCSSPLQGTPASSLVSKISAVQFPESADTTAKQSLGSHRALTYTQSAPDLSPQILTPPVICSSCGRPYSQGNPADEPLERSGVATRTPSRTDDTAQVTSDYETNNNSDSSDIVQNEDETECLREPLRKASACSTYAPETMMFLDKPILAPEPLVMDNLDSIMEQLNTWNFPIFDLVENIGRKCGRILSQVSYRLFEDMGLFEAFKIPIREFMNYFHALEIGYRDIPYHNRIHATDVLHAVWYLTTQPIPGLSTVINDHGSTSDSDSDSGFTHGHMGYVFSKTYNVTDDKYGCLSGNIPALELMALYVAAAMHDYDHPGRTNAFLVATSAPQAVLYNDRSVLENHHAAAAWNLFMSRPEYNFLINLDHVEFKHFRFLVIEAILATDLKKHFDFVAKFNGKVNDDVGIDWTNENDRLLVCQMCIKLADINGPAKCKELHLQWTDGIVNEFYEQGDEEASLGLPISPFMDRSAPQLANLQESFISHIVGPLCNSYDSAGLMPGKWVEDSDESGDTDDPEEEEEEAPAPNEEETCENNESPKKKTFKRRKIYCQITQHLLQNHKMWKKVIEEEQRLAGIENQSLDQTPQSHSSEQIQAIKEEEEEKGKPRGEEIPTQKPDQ
Chain of Voltage-gated inwardly rectifying potassium channel KCNH2 (Q12809 whole entry): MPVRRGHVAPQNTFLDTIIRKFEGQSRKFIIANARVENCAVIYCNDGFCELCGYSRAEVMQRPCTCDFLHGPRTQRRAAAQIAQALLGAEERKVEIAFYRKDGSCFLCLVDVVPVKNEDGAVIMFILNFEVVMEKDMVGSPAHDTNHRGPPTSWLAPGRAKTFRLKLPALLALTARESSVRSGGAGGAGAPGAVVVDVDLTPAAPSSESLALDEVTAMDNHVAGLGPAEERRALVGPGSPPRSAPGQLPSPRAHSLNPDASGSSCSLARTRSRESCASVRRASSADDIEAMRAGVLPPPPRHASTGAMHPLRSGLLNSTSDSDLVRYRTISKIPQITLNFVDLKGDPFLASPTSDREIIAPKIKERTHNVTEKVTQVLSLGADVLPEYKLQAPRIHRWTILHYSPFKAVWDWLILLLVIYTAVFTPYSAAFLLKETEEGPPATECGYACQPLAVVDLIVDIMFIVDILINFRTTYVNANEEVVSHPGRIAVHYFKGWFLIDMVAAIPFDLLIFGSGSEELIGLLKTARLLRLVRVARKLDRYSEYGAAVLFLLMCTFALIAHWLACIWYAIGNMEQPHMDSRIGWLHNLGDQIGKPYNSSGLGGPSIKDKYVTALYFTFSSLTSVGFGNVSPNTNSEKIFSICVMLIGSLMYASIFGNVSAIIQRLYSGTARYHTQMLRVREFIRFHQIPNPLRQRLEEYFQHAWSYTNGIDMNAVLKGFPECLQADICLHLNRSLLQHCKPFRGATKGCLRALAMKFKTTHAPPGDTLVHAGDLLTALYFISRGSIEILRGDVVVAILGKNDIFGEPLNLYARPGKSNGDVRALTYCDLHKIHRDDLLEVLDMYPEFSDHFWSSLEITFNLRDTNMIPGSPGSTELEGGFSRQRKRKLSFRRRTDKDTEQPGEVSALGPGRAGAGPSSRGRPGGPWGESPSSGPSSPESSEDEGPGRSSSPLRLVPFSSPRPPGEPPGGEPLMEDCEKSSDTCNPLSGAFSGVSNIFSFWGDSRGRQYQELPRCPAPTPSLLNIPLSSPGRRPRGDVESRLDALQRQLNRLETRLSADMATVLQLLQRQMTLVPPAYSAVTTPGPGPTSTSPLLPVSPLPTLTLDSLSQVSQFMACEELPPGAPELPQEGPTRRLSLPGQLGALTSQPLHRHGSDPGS
Chain of D(1A) dopamine receptor (P21728 whole entry): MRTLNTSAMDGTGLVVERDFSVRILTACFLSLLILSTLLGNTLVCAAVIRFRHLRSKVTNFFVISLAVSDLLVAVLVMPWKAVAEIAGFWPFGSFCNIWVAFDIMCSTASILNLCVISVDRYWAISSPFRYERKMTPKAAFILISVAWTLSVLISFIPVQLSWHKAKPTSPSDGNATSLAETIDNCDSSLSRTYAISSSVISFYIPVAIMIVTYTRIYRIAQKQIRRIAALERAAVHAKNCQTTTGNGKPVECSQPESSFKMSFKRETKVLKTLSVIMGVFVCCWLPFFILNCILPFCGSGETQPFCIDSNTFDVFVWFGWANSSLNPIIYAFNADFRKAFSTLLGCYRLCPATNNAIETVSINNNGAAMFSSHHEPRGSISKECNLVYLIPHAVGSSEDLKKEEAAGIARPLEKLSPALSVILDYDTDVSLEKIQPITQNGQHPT
Chain of Delta-type opioid receptor (P41143 whole entry): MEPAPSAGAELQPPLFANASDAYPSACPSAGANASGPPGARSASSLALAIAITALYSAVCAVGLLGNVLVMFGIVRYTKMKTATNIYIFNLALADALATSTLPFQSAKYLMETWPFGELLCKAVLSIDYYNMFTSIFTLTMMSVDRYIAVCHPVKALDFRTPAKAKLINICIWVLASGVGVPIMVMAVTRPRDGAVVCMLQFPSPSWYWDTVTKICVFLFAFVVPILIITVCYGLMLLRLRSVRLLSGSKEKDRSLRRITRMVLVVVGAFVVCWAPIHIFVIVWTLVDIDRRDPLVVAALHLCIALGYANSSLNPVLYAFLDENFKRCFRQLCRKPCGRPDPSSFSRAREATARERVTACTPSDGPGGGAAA

Structure (SMILES)	AC50 [1] [µM]	AC50 [2] [µM]	AC50 [3] [µM]	AC50 [4] [µM]	AC50 [5] [µM]	AC50 [6] [µM]	AC50 (D(1A) dopamine receptor) [µM]	AC50 [7] [µM]	AC50 [8] [µM]
NCCCC(O)(P(=O)(O)O)P(=O)(O)O [ALENDRONIC ACID]	> 30	> 10	> 10	1.09					
CC(=O)OCC(=O)[C@@]1(O)CC[C@H]2[C@@H]3CCC4=CC(=O)CC[C@]4(C)C3=CC[C@@]21C [ANECORTAVE ACETATE]	> 30	> 30	> 10	> 30	> 10	> 10	> 10	> 30	> 10
NS(=O)(=O)c1cc2c(cc1C(F)(F)F)NC(Cc1ccccc1)NS2(=O)=O (stereo unspecified) [BENDROFLUMETHIAZIDE]	> 30	> 30	> 10	> 30	> 10	> 10	> 10	> 30	> 10
CCCC(C)(COC(N)=O)COC(=O)NC(C)C (stereo unspecified) [CARISOPRODOL]	> 30	> 30	> 10	> 30	> 10	> 10	> 10	> 30	> 30
N[C@H](Cc1cc(I)c(Oc2cc(I)c(O)c(I)c2)c(I)c1)C(=O)O [DEXTROTHYROXINE]	> 30	> 30	> 10	> 10	> 10	> 10	> 10	> 30	> 30
C[C@@H]1C[C@H]2[C@@H]3C[C@H](F)C4=CC(=O)C=C[C@]4(C)[C@@]3(F)[C@@H](O)C[C@]2(C)[C@H]1C(=O)CO [DIFLUCORTOLONE]		> 30	> 30	> 30	> 30				> 30
Clc1ccc2c(c1)C(c1ccccc1)=NCc1nncn1-2 [ESTAZOLAM]	> 30	> 30	> 10	> 30	> 10	> 10	> 10	> 30	> 30
CC(=O)OCC(CCn1cnc2cnc(N)nc21)COC(C)=O [FAMCICLOVIR]	> 30	> 30	> 10	> 30		> 10	> 10	> 30	> 30
Nc1ccn([C@@H]2O[C@H](CO)[C@@H](O)C2(F)F)c(=O)n1 [GEMCITABINE]	> 30	> 30	> 10	11		> 10	> 10	> 30	> 30
COC1=C(OC)C(=O)C(CCCCCCCCCCO)=C(C)C1=O [IDEBENONE]	> 10	> 10	8.5	6.4		> 10	> 30	> 30	> 30
CC1(C)C(/C=C/C=C/C=C/C=C2\N(CCCCS(=O)(=O)O)c3ccc4ccccc4c3C2(C)C)=[N+](CCCCS(=O)(=O)[O-])c2ccc3ccccc3c21 [INDOCYANINE GREEN ACID FORM]		9.7	> 30	29	9.2			6.5	21
CC#CCn1c(N2CCC[C@@H](N)C2)nc2c1c(=O)n(Cc1nc(C)c3ccccc3n1)c(=O)n2C [LINAGLIPTIN]	> 30	> 10	> 10	> 30	> 10				> 30
CC(=O)Nc1c(I)c(C(=O)N[C@H]2C(O)O[C@H](CO)[C@@H](O)[C@@H]2O)c(I)c(N(C)C(C)=O)c1I (stereo partly specified) [METRIZAMIDE]	> 30	> 30	> 10	> 30	> 10	> 10	> 10	> 30	> 10
CCOC(=O)Nc1ccc2c(c1)N(C(=O)CCN1CCOCC1)c1ccccc1S2 [MORICIZINE]	> 30	> 30	> 30	> 30	22	> 30	> 30	19	> 30
O=C1CN=C(c2ccccc2)c2cc(Cl)ccc2N1 [NORDAZEPAM]	> 30	> 10	> 10	> 30	> 10	> 10	> 10		> 30
CC(CCc1ccccc1)NC(C)C(O)c1ccc(O)cc1 (stereo unspecified) [NYLIDRIN]	> 30	> 10	> 10	> 30	> 10	> 10	> 10	6.3	> 30
O=C1Nc2ccc(Cl)cc2C(c2ccccc2)=NC1O (stereo unspecified) [OXAZEPAM]	> 30	> 10	> 10	> 30	> 10	> 10	> 10		> 30
CC1(C)C(C=C(Cl)Cl)C1C(=O)OCc1cccc(Oc2ccccc2)c1 (stereo unspecified) [PERMETHRIN]	> 30	> 30	> 10	> 30	> 10	> 10	> 10	> 30	> 10
COc1cc2nccc(Oc3ccc(NC(=O)Nc4cc(C)on4)c(Cl)c3)c2cc1OC [TIVOZANIB]			> 30	16	> 30	> 30		> 1	> 3
COc1ccc(C(CN(C)C)C2(O)CCCCC2)cc1 (stereo unspecified) [VENLAFAXINE]	> 30	> 30	> 10	> 10		> 10	> 30	> 30	> 30
